In ChEMBL document CHEMBL4000195, “Design and synthesis of novel 7-aminosubstituted pyrido[2,3-b]pyrazines exhibiting anti-breast cancer activity” (Eur J Med Chem, 2017):
Calls of active or inactive are those of the source. The calls are words filed in the database; no cut-off is given here.

How the values were obtained:
[1] = tested on: MDA-MB-231; assay: Cytotoxicity against human MDA-MB-231 cells at 10 uM by MTT assay; assay type: functional
[2] = tested on: MCF7; assay: Cytotoxicity against human MCF7 cells by MTT assay; assay type: functional, cell-based
[3] = tested on: SK-BR-3; assay: Cytotoxicity against human SKBR3 cells by MTT assay; assay type: functional, cell-based
[4] = tested on: HCC1954; assay: Cytotoxicity against human HCC1954 cells at 5 uM by MTT assay; assay type: functional
[5] = AUC (0 to 8 hrs) in NOD/SCID mouse at 0.5 mg/kg, po administered as single dose by LC-MS/MS method; assay type: ADME, organism-based; set-up: time < 8 hr, dose 0.5 mg/kg, route oral; conditions: in vivo
[6] = tested on: T47D; assay: Cytotoxicity against human T47D cells at 10 uM by MTT assay; assay type: functional
[7] = molecular target: Vascular endothelial growth factor receptor 2 (Homo sapiens) (UniProt P35968); assay: Inhibition of recombinant human GST-tagged VEGFR-2 (789-end residues) transphosphorylation activity expressed in baculovirus infected Sf9 cells using poly[Glu:Tyr] (4:1) as substrate after 60 mins
[8] = tested on: T47D; assay: Cytotoxicity against human T47D cells by MTT assay; assay type: functional, cell-based
[9] = tested on: HCC1954; assay: Cytotoxicity against human HCC1954 cells at 10 uM by MTT assay; assay type: functional
[10] = molecular target: T1, Serine/threonine-protein kinase haspin (Homo sapiens) (UniProt Q8TF76); assay: Inhibition of human HASPIN
T1 sequence (whole entry): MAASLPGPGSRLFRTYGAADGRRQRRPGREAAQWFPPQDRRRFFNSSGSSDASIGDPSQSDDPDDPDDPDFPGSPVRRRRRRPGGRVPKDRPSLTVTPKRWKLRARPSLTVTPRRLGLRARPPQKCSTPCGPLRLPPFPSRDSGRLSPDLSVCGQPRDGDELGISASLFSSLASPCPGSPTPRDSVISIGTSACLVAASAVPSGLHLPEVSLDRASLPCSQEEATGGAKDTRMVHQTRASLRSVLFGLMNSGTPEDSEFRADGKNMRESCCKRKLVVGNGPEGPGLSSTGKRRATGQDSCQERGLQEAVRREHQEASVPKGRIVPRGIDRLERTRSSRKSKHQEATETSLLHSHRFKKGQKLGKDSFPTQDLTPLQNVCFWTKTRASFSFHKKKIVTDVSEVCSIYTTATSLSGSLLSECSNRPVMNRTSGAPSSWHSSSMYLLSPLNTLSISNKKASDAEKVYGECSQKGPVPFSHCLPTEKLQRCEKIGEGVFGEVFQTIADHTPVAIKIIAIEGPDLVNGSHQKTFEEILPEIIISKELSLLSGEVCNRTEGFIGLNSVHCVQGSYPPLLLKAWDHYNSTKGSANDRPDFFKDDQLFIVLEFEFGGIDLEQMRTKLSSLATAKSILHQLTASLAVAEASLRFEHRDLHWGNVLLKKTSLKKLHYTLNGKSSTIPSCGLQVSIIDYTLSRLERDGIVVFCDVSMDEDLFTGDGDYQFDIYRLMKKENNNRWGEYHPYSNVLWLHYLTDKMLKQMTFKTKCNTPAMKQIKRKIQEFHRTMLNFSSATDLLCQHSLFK

[11] = tested on: HCC1954; assay: Cytotoxicity against human HCC1954 cells by MTT assay; assay type: functional, cell-based
[12] = molecular target: Mast/stem cell growth factor receptor Kit (Homo sapiens) (UniProt P10721); assay: Inhibition of recombinant human GST-tagged KIT (544-end residues) transphosphorylation activity expressed in baculovirus infected Sf9 cells using poly[Glu:Tyr] (4:1) as substrate after 60 mins
[13] = tested on: Mus musculus; assay: Toxicity in NOD/SCID mouse assessed as phenotypic changes at 0.5 mg/kg, po administered as single dose; assay type: organism-based; conditions: in vivo
[14] = tested on: MCF7; assay: Cytotoxicity against human MCF7 cells at 10 uM by MTT assay; assay type: functional
[15] = Cmax in NOD/SCID mouse at 0.5 mg/kg, ip administered as single dose by LC-MS/MS method; assay type: ADME, organism-based; set-up: dose 0.5 mg/kg, route intraperitoneal; conditions: in vivo
[16] = molecular target: Platelet-derived growth factor receptor beta (Homo sapiens) (UniProt P09619); assay: Inhibition of recombinant human GST-tagged PDGFR-beta (557-end residues) transphosphorylation activity expressed in baculovirus infected Sf9 cells using poly[Glu:Tyr] (4:1) as substrate after 60 mins
[17] = molecular target: Dual specificity tyrosine-phosphorylation-regulated kinase 1A (Rattus norvegicus) (UniProt Q63470); assay: Inhibition of rat DYRK1A using myelin basic protein as substrate in presence of [gamma33P]ATP after 30 mins by scintillation counting method
[18] = molecular target: Phosphatidylinositol 4,5-bisphosphate 3-kinase catalytic subunit alpha isoform (Homo sapiens, UniProt P42336); assay: Inhibition of PI3Kalpha catalytic domain (unknown origin) using PIP2 liposomes as substrate in presence of biotin-labeled PIP3 and GST-GRP1-PH by streptavidin-HRP based assays
[19] = molecular target: Dual specificity protein kinase CLK1 (Mus musculus) (UniProt P22518); assay: Inhibition of mouse CLK1
[20] = tested on: T47D; assay: Cytotoxicity against human T47D cells at 5 uM by MTT assay; assay type: functional
[21] = molecular target: Cyclin-dependent kinase 5/CDK5 activator 1 (Homo sapiens) (UniProt Q00535+Q15078); assay: Inhibition of human CDK5/p25 using histone H1 as substrate in presence of [gamma33P]ATP after 30 mins by scintillation counting method; assay type: protein-complex assay
[22] = tested on: MCF7; assay: Cytotoxicity against human MCF7 cells at 5 uM by MTT assay; assay type: functional
[23] = molecular target: Receptor-type tyrosine-protein kinase FLT3 (Homo sapiens) (UniProt P36888); assay: Inhibition of recombinant human GST-tagged FLT3 (571 to 993 residues) transphosphorylation activity expressed in baculovirus infected Sf9 cells using poly[Glu:Tyr] (4:1) as substrate after 60 mins
[24] = tested on: MDA-MB-231; assay: Cytotoxicity against human MDA-MB-231 cells at 5 uM by MTT assay; assay type: functional
[25] = Tmax in NOD/SCID mouse at 0.5 mg/kg, ip administered as single dose by LC-MS/MS method; assay type: ADME, organism-based; conditions: in vivo
[26] = molecular target: Glycogen synthase kinase-3 (Sus scrofa) (UniProt B2LUN4+I6LNT8); assay: Inhibition of pig GSK3alpha/beta using GS-1 as substrate in presence of [gamma33P]ATP after 30 mins by scintillation counting method
[27] = tested on: Mus musculus; assay: Toxicity in NOD/SCID mouse assessed as phenotypic changes at 0.5 mg/kg, ip administered as single dose; assay type: organism-based; conditions: in vivo
[28] = species: Sus scrofa; assay: Inhibition of pig CK1delta/epsilon
[29] = molecular target: Aurora kinase B/Inner centromere protein (Homo sapiens) (UniProt Q96GD4+Q9NQS7); assay: Inhibition of human AURKB/INCENP; assay type: protein-complex assay
[30] = tested on: MDA-MB-231; assay: Cytotoxicity against human MDA-MB-231 cells by MTT assay; assay type: functional, cell-based
[31] = Cmax in NOD/SCID mouse at 0.5 mg/kg, po administered as single dose by LC-MS/MS method; assay type: ADME, organism-based; set-up: dose 0.5 mg/kg, route oral; conditions: in vivo
[32] = molecular target: Receptor-interacting serine/threonine-protein kinase 3 (Homo sapiens) (UniProt Q9Y572); assay: Inhibition of human RIPK3
[33] = AUC (0 to 8 hrs) in NOD/SCID mouse at 0.5 mg/kg, ip administered as single dose by LC-MS/MS method; assay type: ADME, organism-based; set-up: dose 0.5 mg/kg, time < 8 hr, route intraperitoneal; conditions: in vivo
[34] = Tmax in NOD/SCID mouse at 0.5 mg/kg, po administered as single dose by LC-MS/MS method; assay type: ADME, organism-based; conditions: in vivo
[35] = tested on: HCC1954; assay: Anti-tumor activity against HER2-amplified human HCC1954 cells xenografted in NOD/SCID mouse assessed as tumor size at 10 mg/kg, ip administered once daily for 18 days measured after 1 hr last dose (reference value: 497 +/- 82 mm3); assay type: functional

Phosphatidylinositol 4,5-bisphosphate 3-kinase catalytic subunit alpha isoform, sequence (P42336 whole entry, the tested form may be a part, canonical isoform): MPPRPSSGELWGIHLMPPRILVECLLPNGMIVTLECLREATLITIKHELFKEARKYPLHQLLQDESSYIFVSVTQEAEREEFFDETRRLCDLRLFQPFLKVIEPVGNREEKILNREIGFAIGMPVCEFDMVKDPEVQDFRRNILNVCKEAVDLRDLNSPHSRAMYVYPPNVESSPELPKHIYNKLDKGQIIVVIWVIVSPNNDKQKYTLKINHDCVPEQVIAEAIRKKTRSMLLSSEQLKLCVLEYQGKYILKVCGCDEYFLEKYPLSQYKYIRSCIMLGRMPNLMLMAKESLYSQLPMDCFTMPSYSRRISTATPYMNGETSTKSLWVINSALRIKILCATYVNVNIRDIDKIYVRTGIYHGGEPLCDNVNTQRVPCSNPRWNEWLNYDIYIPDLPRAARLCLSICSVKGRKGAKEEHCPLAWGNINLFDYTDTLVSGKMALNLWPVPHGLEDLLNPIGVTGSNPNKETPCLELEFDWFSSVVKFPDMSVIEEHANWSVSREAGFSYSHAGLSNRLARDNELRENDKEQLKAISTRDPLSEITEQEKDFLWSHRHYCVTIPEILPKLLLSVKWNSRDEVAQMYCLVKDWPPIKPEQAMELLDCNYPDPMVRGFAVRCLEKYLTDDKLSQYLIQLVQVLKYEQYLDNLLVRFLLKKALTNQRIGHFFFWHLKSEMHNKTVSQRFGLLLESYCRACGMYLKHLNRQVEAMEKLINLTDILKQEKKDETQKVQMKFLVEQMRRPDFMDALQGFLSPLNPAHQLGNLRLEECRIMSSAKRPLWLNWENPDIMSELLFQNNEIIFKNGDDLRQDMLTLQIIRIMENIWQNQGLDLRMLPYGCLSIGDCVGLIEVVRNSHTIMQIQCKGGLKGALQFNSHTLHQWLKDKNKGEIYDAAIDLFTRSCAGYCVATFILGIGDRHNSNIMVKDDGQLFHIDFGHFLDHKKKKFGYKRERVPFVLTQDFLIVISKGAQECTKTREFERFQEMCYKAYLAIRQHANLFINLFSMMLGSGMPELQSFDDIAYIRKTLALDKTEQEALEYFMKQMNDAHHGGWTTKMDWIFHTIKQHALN
Receptor-type tyrosine-protein kinase FLT3 (Homo sapiens), sequence (P36888 whole entry, the tested form may be a part): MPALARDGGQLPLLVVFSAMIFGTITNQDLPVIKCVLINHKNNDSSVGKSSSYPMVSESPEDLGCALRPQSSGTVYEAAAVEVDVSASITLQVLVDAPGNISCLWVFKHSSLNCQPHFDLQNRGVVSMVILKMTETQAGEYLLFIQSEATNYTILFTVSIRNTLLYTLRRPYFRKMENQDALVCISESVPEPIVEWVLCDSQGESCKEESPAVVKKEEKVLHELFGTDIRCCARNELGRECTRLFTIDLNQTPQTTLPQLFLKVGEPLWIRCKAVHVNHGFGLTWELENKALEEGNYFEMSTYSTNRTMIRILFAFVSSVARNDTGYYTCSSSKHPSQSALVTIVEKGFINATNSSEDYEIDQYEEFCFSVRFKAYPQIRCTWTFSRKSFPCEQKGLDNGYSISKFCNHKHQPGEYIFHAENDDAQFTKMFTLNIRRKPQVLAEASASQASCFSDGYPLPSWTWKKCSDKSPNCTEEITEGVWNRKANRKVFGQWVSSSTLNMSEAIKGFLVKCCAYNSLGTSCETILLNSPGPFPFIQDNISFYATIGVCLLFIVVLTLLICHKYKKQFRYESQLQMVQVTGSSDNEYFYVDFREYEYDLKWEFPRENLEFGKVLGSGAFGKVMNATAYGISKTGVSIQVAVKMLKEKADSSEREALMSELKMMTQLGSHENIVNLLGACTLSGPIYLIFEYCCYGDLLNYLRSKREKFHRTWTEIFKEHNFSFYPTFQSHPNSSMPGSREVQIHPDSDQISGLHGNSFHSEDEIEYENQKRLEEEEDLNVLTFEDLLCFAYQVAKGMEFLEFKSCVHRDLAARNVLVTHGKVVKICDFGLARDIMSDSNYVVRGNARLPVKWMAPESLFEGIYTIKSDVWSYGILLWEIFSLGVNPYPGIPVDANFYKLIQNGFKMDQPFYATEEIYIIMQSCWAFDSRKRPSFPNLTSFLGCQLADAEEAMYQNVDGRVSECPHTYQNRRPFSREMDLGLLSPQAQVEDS
Dual specificity protein kinase CLK1 (Mus musculus), sequence (P22518 whole entry, looked up): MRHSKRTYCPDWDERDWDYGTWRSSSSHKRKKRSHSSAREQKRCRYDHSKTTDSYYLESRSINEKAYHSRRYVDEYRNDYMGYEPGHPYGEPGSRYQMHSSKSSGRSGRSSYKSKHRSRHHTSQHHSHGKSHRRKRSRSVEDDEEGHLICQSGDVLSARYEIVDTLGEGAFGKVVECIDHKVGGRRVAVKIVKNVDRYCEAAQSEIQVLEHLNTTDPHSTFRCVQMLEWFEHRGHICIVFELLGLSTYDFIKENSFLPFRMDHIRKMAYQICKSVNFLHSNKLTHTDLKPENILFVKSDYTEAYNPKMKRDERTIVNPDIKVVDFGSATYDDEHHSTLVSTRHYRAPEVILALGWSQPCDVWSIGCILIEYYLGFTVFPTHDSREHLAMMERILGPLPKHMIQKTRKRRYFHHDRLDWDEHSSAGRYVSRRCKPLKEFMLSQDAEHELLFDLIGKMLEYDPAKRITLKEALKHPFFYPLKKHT
Vascular endothelial growth factor receptor 2 (Homo sapiens), sequence (P35968 whole entry): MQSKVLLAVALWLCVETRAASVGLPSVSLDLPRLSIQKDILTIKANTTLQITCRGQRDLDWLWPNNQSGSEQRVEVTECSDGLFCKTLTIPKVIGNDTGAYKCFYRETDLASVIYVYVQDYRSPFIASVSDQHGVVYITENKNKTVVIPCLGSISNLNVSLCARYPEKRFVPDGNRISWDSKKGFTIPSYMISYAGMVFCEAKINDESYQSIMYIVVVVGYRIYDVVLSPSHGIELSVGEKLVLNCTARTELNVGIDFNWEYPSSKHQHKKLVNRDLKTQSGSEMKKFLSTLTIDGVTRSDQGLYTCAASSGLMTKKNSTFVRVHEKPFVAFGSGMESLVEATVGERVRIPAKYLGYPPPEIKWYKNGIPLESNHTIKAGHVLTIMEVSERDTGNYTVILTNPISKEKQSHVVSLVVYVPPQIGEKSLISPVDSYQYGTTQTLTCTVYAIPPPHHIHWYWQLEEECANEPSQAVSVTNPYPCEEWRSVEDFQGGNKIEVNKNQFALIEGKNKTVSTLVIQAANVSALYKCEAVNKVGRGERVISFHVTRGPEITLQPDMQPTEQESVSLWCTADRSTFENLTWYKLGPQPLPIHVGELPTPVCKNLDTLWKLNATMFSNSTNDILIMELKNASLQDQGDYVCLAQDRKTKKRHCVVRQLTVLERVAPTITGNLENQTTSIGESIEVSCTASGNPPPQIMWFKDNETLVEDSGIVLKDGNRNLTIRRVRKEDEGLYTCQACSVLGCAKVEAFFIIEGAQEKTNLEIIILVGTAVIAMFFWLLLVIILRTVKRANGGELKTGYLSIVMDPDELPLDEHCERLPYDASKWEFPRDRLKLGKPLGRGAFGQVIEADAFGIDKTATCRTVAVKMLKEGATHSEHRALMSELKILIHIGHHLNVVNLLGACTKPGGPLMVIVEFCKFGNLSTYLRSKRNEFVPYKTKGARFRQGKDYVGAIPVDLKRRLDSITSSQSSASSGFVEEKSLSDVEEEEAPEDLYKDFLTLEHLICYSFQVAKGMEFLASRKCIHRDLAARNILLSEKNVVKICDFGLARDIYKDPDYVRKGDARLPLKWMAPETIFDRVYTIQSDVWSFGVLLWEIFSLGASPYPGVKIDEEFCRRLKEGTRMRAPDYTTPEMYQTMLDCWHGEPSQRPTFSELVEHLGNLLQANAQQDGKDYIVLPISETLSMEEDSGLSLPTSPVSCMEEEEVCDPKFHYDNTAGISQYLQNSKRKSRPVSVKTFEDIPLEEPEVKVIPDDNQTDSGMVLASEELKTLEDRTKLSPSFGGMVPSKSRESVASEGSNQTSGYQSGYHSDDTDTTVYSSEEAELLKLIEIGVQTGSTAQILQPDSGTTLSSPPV
Receptor-interacting serine/threonine-protein kinase 3 (Homo sapiens), sequence (Q9Y572 whole entry, looked up): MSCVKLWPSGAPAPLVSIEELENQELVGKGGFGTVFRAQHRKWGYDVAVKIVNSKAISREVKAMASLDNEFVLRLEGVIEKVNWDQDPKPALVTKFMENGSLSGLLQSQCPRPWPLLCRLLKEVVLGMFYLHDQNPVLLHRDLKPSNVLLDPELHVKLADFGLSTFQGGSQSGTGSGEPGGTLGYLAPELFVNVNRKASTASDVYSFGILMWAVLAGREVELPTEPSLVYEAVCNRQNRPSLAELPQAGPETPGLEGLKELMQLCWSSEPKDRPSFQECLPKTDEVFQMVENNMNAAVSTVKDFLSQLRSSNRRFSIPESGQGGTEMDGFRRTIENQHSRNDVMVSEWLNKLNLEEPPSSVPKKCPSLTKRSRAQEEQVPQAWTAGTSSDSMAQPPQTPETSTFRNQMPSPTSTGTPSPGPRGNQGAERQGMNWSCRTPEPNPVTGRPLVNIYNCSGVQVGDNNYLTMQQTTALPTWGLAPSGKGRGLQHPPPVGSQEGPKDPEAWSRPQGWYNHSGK
Cyclin-dependent kinase 5/CDK5 activator 1 (Homo sapiens), sequence (Q00535 whole entry): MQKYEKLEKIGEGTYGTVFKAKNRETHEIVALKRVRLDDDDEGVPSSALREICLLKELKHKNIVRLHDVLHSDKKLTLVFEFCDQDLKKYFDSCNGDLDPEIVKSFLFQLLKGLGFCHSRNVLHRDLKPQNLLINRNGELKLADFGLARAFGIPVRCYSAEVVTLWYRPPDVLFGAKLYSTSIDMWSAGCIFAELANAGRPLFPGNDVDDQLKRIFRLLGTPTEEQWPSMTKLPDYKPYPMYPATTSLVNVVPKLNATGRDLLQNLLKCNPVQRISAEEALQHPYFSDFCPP
Cyclin-dependent kinase 5/CDK5 activator 1 (Homo sapiens), sequence (Q15078 99-307 partner limits assumed): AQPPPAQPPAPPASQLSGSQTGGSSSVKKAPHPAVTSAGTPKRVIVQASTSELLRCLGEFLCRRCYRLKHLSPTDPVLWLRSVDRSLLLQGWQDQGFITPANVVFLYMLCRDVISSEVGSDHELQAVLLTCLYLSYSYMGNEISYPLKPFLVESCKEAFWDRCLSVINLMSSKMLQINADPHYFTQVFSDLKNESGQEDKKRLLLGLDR

Work on `Cc1nc2nc(Sc3ccccc3)cnc2cc1NC(=O)c1ccccc1` yielded an Activity [1] of over 50%, an IC50 [2] of 4 µM and an IC50 [3] of 3.7 µM. For the same compound, the Activity [4] was over 50%, the AUC(0-t) at 8 h [5] was 430 nM·h and the Activity [6] was over 50%. The inhibition [7] was “inactive”, the IC50 [8] was 1.5 µM and the Activity [9] was over 50%. The inhibition [10] was “inactive”, the IC50 [11] was 4.5 µM and the inhibition [12] was “inactive”. The Activity [13] was “Non-Toxic”, the Activity [14] was over 50% and the Cmax [15] was 0.52 µM. For the same compound, the inhibition [16] was “inactive”, the inhibition [17] was “inactive” and the inhibition [18] was “inactive”. The inhibition [19] was “inactive”, the Activity [20] was over 50% and the inhibition [21] was “inactive”. For the same compound, the Activity [22] was over 50%, the inhibition [23] was “inactive” and the Activity [24] was over 50%. The Tmax [25] was 30 min, the inhibition [26] was “inactive” and the Activity [27] was “Non-Toxic”. The inhibition [28] was “inactive”, the inhibition [29] was “inactive” and the IC50 [30] was 4 µM. The Cmax [31] was 0.32 µM, the inhibition [32] was “inactive” and the AUC(0-t) at 8 h [33] was 570 nM·h. The Tmax [34] was 15 min.

`CS(=O)(=O)N1CCN(Cc2cc3nc(-c4cccc5[nH]ncc45)nc(N4CCOCC4)c3s2)CC1` [PICTILISIB] showed an IC50 [2] of 2 µM, an IC50 [3] of 0.9 µM and an IC50 [8] of 1.2 µM. It also gave an IC50 [11] of 1.3 µM, an Activity [35] of 350 mm3 and an IC50 [30] of over 30 µM.
